Measurements published in ChEMBL document CHEMBL5247602, “Developing a Naïve Bayesian Classification Model with PI3Kγ structural features for virtual screening against PI3Kγ: Combining molecular docking and pharmacophore based on multiple PI3Kγ conformations” (Eur J Med Chem, 2022).
pIC50: −log10 of the molar value.

Key:
[1] = biological target: T1, Phosphatidylinositol 4,5-bisphosphate 3-kinase catalytic subunit gamma isoform (Homo sapiens, UniProt P48736); assay: Inhibition of PI3Kgamma (unknown origin) preincubated for 10 mins followed by ATP addition and measured after 60 mins by ADP-Glo assay
Target sequence in this assay (P48736 whole entry, canonical isoform): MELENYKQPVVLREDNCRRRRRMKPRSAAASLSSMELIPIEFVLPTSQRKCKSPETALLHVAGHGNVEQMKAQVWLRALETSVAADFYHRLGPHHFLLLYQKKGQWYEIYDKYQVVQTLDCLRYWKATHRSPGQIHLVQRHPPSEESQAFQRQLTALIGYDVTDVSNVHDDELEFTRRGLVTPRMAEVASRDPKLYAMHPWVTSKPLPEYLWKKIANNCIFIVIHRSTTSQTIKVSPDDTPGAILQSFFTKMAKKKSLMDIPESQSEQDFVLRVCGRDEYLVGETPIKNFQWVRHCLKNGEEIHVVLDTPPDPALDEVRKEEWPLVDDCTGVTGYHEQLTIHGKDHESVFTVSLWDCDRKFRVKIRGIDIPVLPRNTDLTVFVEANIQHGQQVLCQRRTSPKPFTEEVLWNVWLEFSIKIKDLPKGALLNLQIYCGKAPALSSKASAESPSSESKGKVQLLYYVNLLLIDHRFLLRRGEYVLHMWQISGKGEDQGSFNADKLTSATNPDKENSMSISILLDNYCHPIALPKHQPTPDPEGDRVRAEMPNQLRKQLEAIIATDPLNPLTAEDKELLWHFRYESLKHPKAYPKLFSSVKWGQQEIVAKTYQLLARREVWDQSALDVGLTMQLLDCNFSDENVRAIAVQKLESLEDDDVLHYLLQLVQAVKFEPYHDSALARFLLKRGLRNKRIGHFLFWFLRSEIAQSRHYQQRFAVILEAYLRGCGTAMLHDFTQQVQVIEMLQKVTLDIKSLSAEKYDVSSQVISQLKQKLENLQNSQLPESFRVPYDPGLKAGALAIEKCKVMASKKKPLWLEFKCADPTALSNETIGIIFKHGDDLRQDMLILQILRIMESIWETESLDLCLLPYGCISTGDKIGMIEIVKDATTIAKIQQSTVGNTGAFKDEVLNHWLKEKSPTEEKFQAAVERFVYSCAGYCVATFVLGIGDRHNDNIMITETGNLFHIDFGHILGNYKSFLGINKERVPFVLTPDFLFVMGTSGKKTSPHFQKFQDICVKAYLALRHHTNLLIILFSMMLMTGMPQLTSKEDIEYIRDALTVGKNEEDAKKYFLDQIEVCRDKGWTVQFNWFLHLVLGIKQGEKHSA

[2] = biological target: T1, Phosphatidylinositol 4,5-bisphosphate 3-kinase catalytic subunit gamma isoform; assay: Inhibition of PI3Kgamma (unknown origin) at 10 uM preincubated for 10 mins followed by ATP addition and measured after 60 mins by ADP-Glo assay relative to control; settings: time 70.0 min
Target sequence in this assay (P48736 whole entry, looked up, canonical isoform): as the sequence (P48736 whole entry, canonical isoform) above

RAW264.7 [3] = assay: Inhibition of PI3K/AKT signalling pathway in mouse RAW264.7 cells assessed as reduction in LPS-stimulated phosphorylation of AKT at Ser473 residue preincubated for 6 hrs followed by LPS stimulation for 6 hrs by Western blot analysis; assay type: cell-based; settings: dose 5-20 µM, time 12.0 hrs
[4] = biological target: T2, Phosphatidylinositol 4,5-bisphosphate 3-kinase catalytic subunit delta isoform (Homo sapiens, UniProt O00329); assay: Inhibition of PI3Kdelta (unknown origin) preincubated for 10 mins followed by ATP addition and measured after 60 mins by ADP-Glo assay
T2 sequence (O00329 whole entry): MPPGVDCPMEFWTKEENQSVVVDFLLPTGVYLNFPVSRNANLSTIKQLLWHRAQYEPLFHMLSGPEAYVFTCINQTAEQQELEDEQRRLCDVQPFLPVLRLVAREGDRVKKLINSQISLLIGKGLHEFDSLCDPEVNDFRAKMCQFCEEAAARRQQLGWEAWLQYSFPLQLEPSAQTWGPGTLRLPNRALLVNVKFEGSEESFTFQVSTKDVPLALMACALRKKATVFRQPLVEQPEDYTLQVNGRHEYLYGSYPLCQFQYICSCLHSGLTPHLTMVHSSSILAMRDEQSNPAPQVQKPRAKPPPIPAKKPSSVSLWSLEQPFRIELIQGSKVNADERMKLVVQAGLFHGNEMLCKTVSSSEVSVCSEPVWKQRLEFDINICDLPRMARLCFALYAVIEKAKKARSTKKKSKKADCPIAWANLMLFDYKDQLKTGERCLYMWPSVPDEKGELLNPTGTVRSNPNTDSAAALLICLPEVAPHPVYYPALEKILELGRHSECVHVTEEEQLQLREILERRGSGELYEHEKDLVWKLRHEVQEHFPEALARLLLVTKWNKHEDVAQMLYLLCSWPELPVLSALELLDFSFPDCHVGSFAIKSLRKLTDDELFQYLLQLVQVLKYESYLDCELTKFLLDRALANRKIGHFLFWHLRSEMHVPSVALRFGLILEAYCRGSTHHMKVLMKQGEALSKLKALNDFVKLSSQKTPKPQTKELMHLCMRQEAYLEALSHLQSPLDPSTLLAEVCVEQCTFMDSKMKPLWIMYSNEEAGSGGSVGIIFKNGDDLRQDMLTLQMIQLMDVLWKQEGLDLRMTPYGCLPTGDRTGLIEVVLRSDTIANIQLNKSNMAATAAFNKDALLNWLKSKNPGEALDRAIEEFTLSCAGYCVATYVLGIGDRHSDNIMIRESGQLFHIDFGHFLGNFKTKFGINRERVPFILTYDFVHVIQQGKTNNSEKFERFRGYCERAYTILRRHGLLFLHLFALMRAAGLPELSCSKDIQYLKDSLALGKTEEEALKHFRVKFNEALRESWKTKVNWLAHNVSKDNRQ

[5] = biological target: Phosphatidylinositol 4,5-bisphosphate 3-kinase catalytic subunit gamma isoform (Mus musculus) (UniProt Q9JHG7); assay: Inhibition of PI3Kgamma in mouse RAW264 cells assessed as reduction in LPS-stimulated TNFalpha mRNA expression preincubated for 6 hrs followed by LPS addition and measured after 24 hrs by RT-PCR analysis; assay type: cell-based; settings: RAW264.7, dose 1.2-10 µM, time 30.0 hrs
[6] = biological target: Phosphatidylinositol 4,5-bisphosphate 3-kinase catalytic subunit alpha isoform (Homo sapiens, UniProt P42336); assay: Inhibition of PI3Kalpha (unknown origin) preincubated for 10 mins followed by ATP addition and measured after 60 mins by ADP-Glo assay
[7] = biological target: Phosphatidylinositol 4,5-bisphosphate 3-kinase catalytic subunit beta isoform (Homo sapiens, UniProt P42338); assay: Inhibition of PI3Kbeta (unknown origin) preincubated for 10 mins followed by ATP addition and measured after 60 mins by ADP-Glo assay
RAW264.7 [8] = assay: Inhibition of PI3K/AKT signalling pathway in mouse RAW264.7 cells assessed as reduction in LPS-stimulated phosphorylation of AKT at Ser473 residue at 5 to 20 uM preincubated with compound followed by LPS stimulation for 6 hrs by Western blot analysis; assay type: cell-based; settings: dose 5-20 µM, TDE = time-dependent effect
[9] = biological target: Phosphatidylinositol 4,5-bisphosphate 3-kinase catalytic subunit gamma isoform (Mus musculus) (UniProt Q9JHG7); assay: Inhibition of PI3Kgamma in mouse RAW264 cells assessed as reduction in LPS-stimulated IL-6 mRNA expression preincubated for 6 hrs followed by LPS addition and measured after 24 hrs by RT-PCR analysis; assay type: cell-based; settings: RAW264.7, dose 1.2-10 µM, time 30.0 hrs

Chain of Phosphatidylinositol 4,5-bisphosphate 3-kinase catalytic subunit gamma isoform (Mus musculus) (Q9JHG7 whole entry, looked up, canonical isoform): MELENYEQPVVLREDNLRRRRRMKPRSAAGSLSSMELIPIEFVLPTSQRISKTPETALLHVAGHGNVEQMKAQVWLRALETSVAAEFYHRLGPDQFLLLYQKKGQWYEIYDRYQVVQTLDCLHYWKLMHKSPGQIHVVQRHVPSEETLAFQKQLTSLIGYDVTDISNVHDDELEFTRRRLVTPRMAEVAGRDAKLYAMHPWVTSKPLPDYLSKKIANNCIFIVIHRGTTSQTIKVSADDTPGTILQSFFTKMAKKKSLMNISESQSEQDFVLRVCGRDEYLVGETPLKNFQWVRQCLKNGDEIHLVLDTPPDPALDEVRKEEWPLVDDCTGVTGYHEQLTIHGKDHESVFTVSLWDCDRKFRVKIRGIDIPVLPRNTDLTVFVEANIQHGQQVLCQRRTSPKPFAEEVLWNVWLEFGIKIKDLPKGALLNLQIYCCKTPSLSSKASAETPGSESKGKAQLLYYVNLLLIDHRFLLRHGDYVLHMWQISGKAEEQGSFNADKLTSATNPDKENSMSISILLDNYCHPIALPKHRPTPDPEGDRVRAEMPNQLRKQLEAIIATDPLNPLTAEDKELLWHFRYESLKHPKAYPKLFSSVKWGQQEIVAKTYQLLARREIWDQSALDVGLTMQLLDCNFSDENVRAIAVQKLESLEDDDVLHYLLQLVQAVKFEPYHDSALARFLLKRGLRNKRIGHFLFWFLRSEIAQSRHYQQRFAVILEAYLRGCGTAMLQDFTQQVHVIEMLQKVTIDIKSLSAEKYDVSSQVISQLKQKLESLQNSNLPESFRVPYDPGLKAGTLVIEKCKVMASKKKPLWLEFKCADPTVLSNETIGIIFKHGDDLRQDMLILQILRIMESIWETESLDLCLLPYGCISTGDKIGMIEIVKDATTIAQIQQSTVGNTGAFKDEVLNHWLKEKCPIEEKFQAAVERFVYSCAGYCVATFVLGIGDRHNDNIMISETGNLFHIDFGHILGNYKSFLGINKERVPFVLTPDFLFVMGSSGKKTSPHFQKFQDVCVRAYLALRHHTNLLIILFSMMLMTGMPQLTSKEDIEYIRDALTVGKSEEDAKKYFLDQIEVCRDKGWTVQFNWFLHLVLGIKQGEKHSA
Chain of Phosphatidylinositol 4,5-bisphosphate 3-kinase catalytic subunit alpha isoform (P42336 whole entry, canonical isoform): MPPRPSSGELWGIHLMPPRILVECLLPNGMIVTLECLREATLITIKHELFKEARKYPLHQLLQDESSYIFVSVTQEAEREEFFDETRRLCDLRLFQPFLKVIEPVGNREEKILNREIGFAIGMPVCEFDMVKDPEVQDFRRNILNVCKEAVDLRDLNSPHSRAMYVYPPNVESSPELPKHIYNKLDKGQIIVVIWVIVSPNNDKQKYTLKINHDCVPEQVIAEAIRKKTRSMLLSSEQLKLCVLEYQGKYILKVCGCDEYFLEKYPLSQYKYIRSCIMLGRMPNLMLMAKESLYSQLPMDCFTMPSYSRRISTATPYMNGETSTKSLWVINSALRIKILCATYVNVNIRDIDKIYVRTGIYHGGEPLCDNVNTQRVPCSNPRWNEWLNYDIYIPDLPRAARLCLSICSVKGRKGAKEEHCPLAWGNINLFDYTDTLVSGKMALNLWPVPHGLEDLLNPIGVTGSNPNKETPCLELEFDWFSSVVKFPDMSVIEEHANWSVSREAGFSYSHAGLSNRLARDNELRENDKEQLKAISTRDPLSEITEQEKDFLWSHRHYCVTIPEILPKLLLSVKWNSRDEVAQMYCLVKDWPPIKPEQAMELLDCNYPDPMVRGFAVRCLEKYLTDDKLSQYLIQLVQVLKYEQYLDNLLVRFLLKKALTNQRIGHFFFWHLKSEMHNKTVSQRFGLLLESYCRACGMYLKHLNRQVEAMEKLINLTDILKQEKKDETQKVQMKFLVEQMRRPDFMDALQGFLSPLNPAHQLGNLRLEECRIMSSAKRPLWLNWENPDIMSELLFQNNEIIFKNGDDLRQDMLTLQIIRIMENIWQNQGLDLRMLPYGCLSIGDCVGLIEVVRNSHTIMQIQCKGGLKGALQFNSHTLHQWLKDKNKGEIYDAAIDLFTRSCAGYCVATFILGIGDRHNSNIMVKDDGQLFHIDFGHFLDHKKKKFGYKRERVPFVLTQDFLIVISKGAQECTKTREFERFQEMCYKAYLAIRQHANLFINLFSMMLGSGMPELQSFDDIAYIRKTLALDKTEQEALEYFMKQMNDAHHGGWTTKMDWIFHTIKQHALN
Chain of Phosphatidylinositol 4,5-bisphosphate 3-kinase catalytic subunit beta isoform (P42338 whole entry, canonical isoform): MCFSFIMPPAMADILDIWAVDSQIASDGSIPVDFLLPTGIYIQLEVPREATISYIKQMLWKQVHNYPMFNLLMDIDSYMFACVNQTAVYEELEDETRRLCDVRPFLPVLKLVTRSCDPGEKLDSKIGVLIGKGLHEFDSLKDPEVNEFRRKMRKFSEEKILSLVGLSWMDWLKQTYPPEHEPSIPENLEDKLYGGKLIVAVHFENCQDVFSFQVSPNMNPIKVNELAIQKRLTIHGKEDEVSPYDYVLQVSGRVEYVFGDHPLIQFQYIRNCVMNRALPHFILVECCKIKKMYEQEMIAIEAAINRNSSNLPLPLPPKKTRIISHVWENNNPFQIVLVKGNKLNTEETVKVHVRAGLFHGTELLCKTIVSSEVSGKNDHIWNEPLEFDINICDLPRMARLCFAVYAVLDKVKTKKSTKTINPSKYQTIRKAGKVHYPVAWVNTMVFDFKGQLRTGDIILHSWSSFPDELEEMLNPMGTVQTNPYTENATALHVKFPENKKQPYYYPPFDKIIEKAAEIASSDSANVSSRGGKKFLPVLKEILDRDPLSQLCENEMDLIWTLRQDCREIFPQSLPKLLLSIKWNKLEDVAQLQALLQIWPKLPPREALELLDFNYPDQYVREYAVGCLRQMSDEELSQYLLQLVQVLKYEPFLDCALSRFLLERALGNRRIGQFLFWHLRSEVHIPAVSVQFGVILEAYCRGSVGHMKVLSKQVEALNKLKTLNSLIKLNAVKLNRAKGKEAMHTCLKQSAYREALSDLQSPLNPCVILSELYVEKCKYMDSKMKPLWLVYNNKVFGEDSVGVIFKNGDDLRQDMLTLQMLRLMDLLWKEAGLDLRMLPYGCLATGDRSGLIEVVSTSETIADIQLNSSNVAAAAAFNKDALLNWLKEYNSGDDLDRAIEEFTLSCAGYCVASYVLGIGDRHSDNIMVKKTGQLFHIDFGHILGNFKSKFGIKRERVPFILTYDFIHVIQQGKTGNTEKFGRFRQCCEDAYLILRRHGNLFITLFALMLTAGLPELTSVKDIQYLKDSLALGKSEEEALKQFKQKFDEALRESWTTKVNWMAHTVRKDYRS

| SMILES | pIC50 [1] | inhibition [2] [%] | inhibition (RAW264.7 [3]) | pIC50 [4] | inhibition [5] | pIC50 [6] | pIC50 [7] | inhibition (RAW264.7 [8]) | inhibition [9] |
| --- | --- | --- | --- | --- | --- | --- | --- | --- | --- |
| Cn1c(=O)c2cc(S(N)(=O)=O)ccc2n(C)c1=O | 4.76 | 55 | – | – | – | – | – | – | – |
| Cn1c(=O)n(C)c2ccc3ccc4ccc1c2c43 | 5.61 | 80 | Dose-Dependent Effect | 4.93 | Dose-Dependent Effect | 5.25 | 5.30 | Tde | Dose-Dependent Effect |
| Cn1c(=O)c2cc(S(=O)(=O)NC3CC3)ccc2n(C)c1=O | 4.80 | 40 | – | – | – | – | – | – | – |
